Structures can show the parent of a compound that is named as a salt. Where two headings read alike, the source gives them in different places.
Legend:
BCL-2 = BCL-2 (Homo sapiens (Human), UniProt P10415); test: BCL-2 competition binding (fluorescence polarization) assay; conditions: read-out: BCL2 IC50
Method: Biological Example 1: BCL-2 Competition Binding (Fluorescence Polarization) Assay
The fluorescence-labeled 23 amino acid peptide BH3 was purchased from CalBiochem ([…]). […] This binding assay was performed in 96-well plate and with each assay contained 15 and 30 nM of labeled peptide and purified BCL-2 protein (purchased from R&D Systems, Inc). The assay buffer contained 20 mM Hepes (pH 7.0), 50 mM KCl, 5 mM MgCl2, 20 mM Na2MoO4, 0.1 mg/ml Bovine Gamma Globulin and 0.01% NP40. Compounds were diluted in DMSO and added to the final assay with concentration range from 20 μM to 2 nM. The polarization degree (mP) value was determined by BioTek Synergy II with background subtraction after 3 hours of incubation at room temperature. IC50 was calculated using Prism software with sigmoidal dose-response curve fitting. ABT-737 was used as reference compound. Such assays, carried out with a range of doses of test compounds, allowed the determination of an approximate IC50 value.

[1] = tested on: BCL-2-dependent acute lymphoblastic leukemia (ALL) cell line RS4;11; test: In vitro anti-proliferation assay (ATPlite luminescence) in RS4;11; format: cell-based; conditions: RS4;11 cells, about 72 hours, medium with 5% FBS or 10% normal human serum
Method: Cell antiproliferation was assayed by PerkinElmer ATPlite™ Luminescence Assay System. Briefly, the various test cancer cell lines were plated at a density of about 1×10^4 cells per well in Costar 96-well plates, and were incubated with different concentrations of compounds for about 72 hours in medium supplemented with 5% FBS or 10% normal human serum (NHS). One lyophilized substrate solution vial was then reconstituted by adding 5 mL of substrate buffer solution, and was agitated gently until the solution was homogeneous. About 50 μL of mammalian cell lysis solution was added to 100 μL of cell suspension per well of a microplate, and the plate was shaken for about five minutes in an orbital shaker at 700 rpm. This procedure was used to lyse the cells and to stabilize the ATP. Next, 50 μL substrate solution was added to the wells and microplate was shaken for five minutes in an orbital shaker at 700 rpm. Finally, the luminescence was measured by a PerkinElmer TopCount® Microplate Scintillation Counter. Such assays, carried out with a range of doses of test compounds, allowed the determination of the cellular anti-antiproliferative IC50 of the compounds of the present invention.

[2] = fluorescein-labeled BH3 peptide 15 nM, purified BCL-2 protein 30 nM, 3 hours incubation at room temperature

Sequence of BCL-2 (P10415 whole entry): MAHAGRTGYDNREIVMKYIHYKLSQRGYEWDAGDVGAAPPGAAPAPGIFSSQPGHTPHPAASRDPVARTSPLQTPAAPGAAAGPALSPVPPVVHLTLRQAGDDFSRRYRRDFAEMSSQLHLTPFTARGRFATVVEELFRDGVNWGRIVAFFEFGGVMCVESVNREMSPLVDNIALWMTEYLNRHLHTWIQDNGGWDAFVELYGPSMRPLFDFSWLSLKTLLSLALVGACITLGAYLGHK

| SMILES | IC50 (BCL-2; [2]) [nM] | IC50 (BCL-2) [nM] | IC50 [1] [nM] |
| --- | --- | --- | --- |
| CC1(C)CCC(CN2CCN(c3ccc(C(=O)NS(=O)(=O)c4ccc(NCC5CCOCC5)c([N+](=O)[O-])c4)c(N4CC(F)(F)COc5nc6[nH]ccc6cc54)c3)CC2)=C(c2ccc(Cl)cc2)C1 [Example 36, 4-(4-[[2-(4-chlorophenyl)-4,4-dimethylcyclohex-1-en-1-yl]methyl]piperazin-1-yl)-2-[12,12-difluoro-14-oxa-2,4,10-triazatricyclo[7.5.0.0^[3,7]]tetradeca-1(9),2,5,7-tetraen-10-yl]-N-(3-nitro-4-[[(oxan-4-yl)methyl]amino]benzenesulfonyl)benzamide] |  |  | 0.95 |
| CC1(C)CCC(CN2CCN(c3ccc(C(=O)NS(=O)(=O)c4ccc(NCC5CCOCC5)c([N+](=O)[O-])c4)c(N4CCC(c5ccccn5)Oc5nc6[nH]ccc6cc54)c3)CC2)=C(c2ccc(Cl)cc2)C1 (stereo not shown) [Example 40, 4-(4-[[2-(4-chlorophenyl)-4,4-dimethylcyclohex-1-en-1-yl]methyl]piperazin-1-yl)-N-[3-nitro-4-[(oxan-4-ylmethyl)amino]benzenesulfonyl]-2-[13-(pyridin-2-yl)-14-oxa-2,4,10-triazatricyclo[7.5.0.0^[3,7]]tetradeca-1(9),2,5,7-tetraen-10-yl]benzamide hydrochloride] |  |  | 5.6 |
| CC1(C)CCC(CN2CCN(c3ccc(C(=O)NS(=O)(=O)c4ccc(NCCN5CCN(CCOCCOCCNc6cccc7c6C(=O)N(C6CCC(=O)NC6=O)C7=O)CC5)c([N+](=O)[O-])c4)c(N4CCCOc5nc6[nH]ccc6cc54)c3)CC2)=C(c2ccc(Cl)cc2)C1 (stereo not shown) [Example 50, 4-(4-[[2-(4-chlorophenyl)-4,4-dimethylcyclohex-1-en-1-yl]methyl]piperazin-1-yl)-N-(4-[[2-(4-[2-[2-(2-[[2-(2,6-dioxopiperidin-3-yl)-1,3-dioxoisoindol-4-yl]amino]ethoxy)ethoxy]ethyl]piperazin-1-yl)ethyl]amino]-3-nitrobenzenesulfonyl)-2-[14-oxa-2,4,10-triazatricyclo[7.5.0.0^[3,7]]tetradeca-1(9),2,5,7-tetraen-10-yl]benzamide] |  | 0.6 | 43 |
| CC1(C)CCC(CN2CCN(c3ccc(C(=O)NS(=O)(=O)c4ccc(NCCOCCOCCOCCOCCNc5cccc6c5C(=O)N(C5CCC(=O)NC5=O)C6=O)c([N+](=O)[O-])c4)c(N4CCCOc5nc6[nH]ccc6cc54)c3)CC2)=C(c2ccc(Cl)cc2)C1 (stereo not shown) [Example 51, 4-(4-[[2-(4-chlorophenyl)-4,4-dimethylcyclohex-1-en-1-yl]methyl]piperazin-1-yl)-N-[4-(15-[[2-(2,6-dioxopiperidin-3-yl)-1,3-dioxoisoindol-4-yl]amino]-4,7,10,13-tetraoxa-1-azapentadecan-1-yl)-3-nitrobenzenesulfonyl]-2-[14-oxa-2,4,10-triazatricyclo[7.5.0.0^[3,7]]tetradeca-1(9),2,5,7-tetraen-10-yl]benzamide] | 0.9 |  | 62 |
| CC1(C)CCC(CN2CCN(c3ccc(C(=O)NS(=O)(=O)c4ccc(NC[C@H]5COCCO5)c([N+](=O)[O-])c4)c(N4C(=O)COc5nc6[nH]ccc6cc54)c3)CC2)=C(c2ccc(Cl)cc2)C1 [Example 76, 4-(4-[[2-(4-chlorophenyl)-4,4-dimethylcyclohex-1-en-1-yl]methyl]piperazin-1-yl)-N-(4-[[(2S)-1,4-dioxan-2-ylmethyl]amino]-3-nitrobenzenesulfonyl)-2-[11-oxo-13-oxa-2,4,10-triazatricyclo[7.4.0.0[3,7]]trideca-1(9),2,5,7-tetraen-10-yl]benzamide] |  |  | 54 |

More lines, main results first:

| IC50 (BCL-2; [2]) [nM] | IC50 (BCL-2) [nM] | SMILES | IC50 [1] [nM] |
| --- | --- | --- | --- |
| 0.3 |  | CC1(C)CCC(CN2CCN(c3ccc(C(=O)NS(=O)(=O)c4ccc(NCC5CCOCC5)c([N+](=O)[O-])c4)c(N4CCCSc5nc6[nH]ccc6cc54)c3)CC2)=C(c2ccc(Cl)cc2)C1 [Example 27, 4-(4-((4′-chloro-5,5-dimethyl-3,4,5,6-tetrahydro-[1,1′-biphenyl]-2-yl)methyl)piperazin-1-yl)-2-(3,4-dihydro-2H-pyrrolo[3′,2′:5,6]pyrido[2,3-b][1,4]thiazepin-1(7H)-yl)-N-((3-nitro-4-(((tetrahydro-2H-pyran-4-yl)methyl)amino)phenyl)sulfonyl)benzamide] | 21 |
| 42.6 |  | CC1(C)CCC(CN2CCN(c3ccc(C(=O)NS(=O)(=O)c4ccc(NCC5CCOCC5)c([N+](=O)[O-])c4)c(N4CCOc5ccccc54)c3)CC2)=C(c2ccc(Cl)cc2)C1 [Example 33, 4-(4-[[2-(4-chlorophenyl)-4,4-dimethylcyclohex-1-en-1-yl]methyl]piperazin-1-yl)-2-(3,4-dihydro-2H-1,4-benzoxazin-4-yl)-N-(3-nitro-4-[[(oxan-4-yl)methyl]amino]benzenesulfonyl)benzamide] |  |
| 122 |  | CC1(C)CCC(CN2CCN(c3ccc(C(=O)NS(=O)(=O)c4ccc(NCC5CCOCC5)c([N+](=O)[O-])c4)c(N4CCOc5ccncc54)c3)CC2)=C(c2ccc(Cl)cc2)C1 [Example 34, 4-(4-[[2-(4-chlorophenyl)-4,4-dimethylcyclohex-1-en-1-yl]methyl]piperazin-1-yl)-N-[3-nitro-4-[(oxan-4-ylmethyl)amino]benzenesulfonyl]-2-[2H,3H-pyrido[4,3-b][1,4]oxazin-4-yl]benzamide] |  |
| 27 |  | CC1(C)CCC(CN2CCN(c3ccc(C(=O)NS(=O)(=O)c4ccc(NCC5CCOCC5)c([N+](=O)[O-])c4)c(N4CCCOc5ncccc54)c3)CC2)=C(c2ccc(Cl)cc2)C1 [Example 35, 4-(4-[[2-(4-chlorophenyl)-4,4-dimethylcyclohex-1-en-1-yl]methyl]piperazin-1-yl)-N-[3-nitro-4-[(oxan-4-ylmethyl)amino]benzenesulfonyl]-2-[2H,3H,4H-pyrido[2,3-b][1,4]oxazepin-1-yl]benzamide] |  |
|  | 47 | CC1(C)CCC(CN2CCN(c3ccc(C(=O)NS(=O)(=O)c4ccc(NC[C@H]5COCCO5)c([N+](=O)[O-])c4)c(N4CCCOc5nc6[nH]ccc6cc54)c3)CC2)=C(c2ccc(O)cc2)C1 [Example 38, N-(4-[[(2S)-1,4-dioxan-2-ylmethyl]amino]-3-nitrobenzenesulfonyl)-4-(4-[[2-(4-hydroxyphenyl)-4,4-dimethylcyclohex-1-en-1-yl]methyl]piperazin-1-yl)-2-[14-oxa-2,4,10-triazatricyclo[7.5.0.0^[3,7]]tetradeca-1(9),2,5,7-tetraen-10-yl]benzamide] |  |
| 1.5 |  | CC1(C)CCC(CN2CCN(c3ccc(C(=O)NS(=O)(=O)c4ccc(NC[C@H]5COCCO5)c([N+](=O)[O-])c4)c(N4CCCOc5nc(N)ccc54)c3)CC2)=C(c2ccc(Cl)cc2)C1 [Example 39, 2-[7-amino-2H,3H,4H-pyrido[2,3-b][1,4]oxazepin-1-yl]-4-(4-[[2-(4-chlorophenyl)-4,4-dimethylcyclohex-1-en-1-yl]methyl]piperazin-1-yl)-N-(4-[[(2S)-1,4-dioxan-2-ylmethyl]amino]-3-nitrobenzenesulfonyl)benzamide] | 544 |
|  | 0.1 | CC1(C)CCC(CN2CCN(c3ccc(C(=O)NS(=O)(=O)c4ccc(NC[C@H]5COCCO5)c([N+](=O)[O-])c4)c(N4CCOCc5nc6[nH]ccc6cc54)c3)CC2)=C(c2ccc(Cl)cc2)C1 [Example 41, 4-(4-[[2-(4-chlorophenyl)-4,4-dimethylcyclohex-1-en-1-yl]methyl]piperazin-1-yl)-N-(4-[[(2S)-1,4-dioxan-2-ylmethyl]amino]-3-nitrobenzenesulfonyl)-2-[13-oxa-2,4,10-triazatricyclo[7.5.0.0^[3,7]]tetradeca-1(9),2,5,7-tetraen-10-yl]benzamide hydrochloride] | 1.1 |
| 4.1 |  | CNc1ccc2c(n1)OCCCN2c1cc(N2CCN(CC3=C(c4ccc(Cl)cc4)CC(C)(C)CC3)CC2)ccc1C(=O)NS(=O)(=O)c1ccc(NC[C@H]2COCCO2)c([N+](=O)[O-])c1 [Example 42, 4-(4-[[2-(4-chlorophenyl)-4,4-dimethylcyclohex-1-en-1-yl]methyl]piperazin-1-yl)-N-(4-[[(2S)-1,4-dioxan-2-ylmethyl]amino]-3-nitrobenzenesulfonyl)-2-[7-(methylamino)-2H,3H,4H-pyrido[2,3-b][1,4]oxazepin-1-yl]benzamide hydrochloride] | > 1000 |

— patent US12220419B2, “BCL-2 inhibitors” (Newave Pharmaceutical Inc., priority 2018, dated 2025)
